One assay relates to NCI-H226 cells. Nature of the assay: NCI-H226 proliferation assay (in house). It counts as cell-based. The note with it: Homo sapiens, 120 h, 5 days, Cell TiterGlo, 20-point 1:2 dilution from 20 μM. How it is done: NCI-H226 Proliferation Assay
NCI-H226 cells were obtained from American Type Culture Collection (ATCC, CRL-5826) and cultured in RPMI 1640 with L-glutamine (Corning, 10-040-CV) supplemented with 10% fetal bovine serum (Gibco, 10438-026) and 1% penicillin-streptomycin (Gibco, 15070063). Cells were trypsinized, resuspended in growth medium, and diluted to a concentrated of 10,000 cells/mL. 500 cells, 50 μL of cell suspension, per well were then plated in a white 384-well plate (Corning) and incubated at 37° C., 5% CO2. After 24 hours incubation, 100 nL of test compounds in DMSO, 20-point 1:2 dilution starting from 20 μM (final concentration) in triplicate, were transferred to each well using an Agilent Bravo instrument outfitted with a pintool head. Cells were incubated at 37° C., 5% CO2 for 5 days followed by the addition of 30 μL of Cell TiterGlo (Promega; diluted 1:6 in water) to each well and luminescence values recorded using an EnVision plate reader. […]
A general note: In ATP-based viability assays light output follows the ATP content of the culture.

Assay [1] deals with transcriptional activity of TEADs. Nature of the assay: TEAD reporter assay (MCF7 TEAD-LUC reporter cells). It counts as cell-based. The note with it: Homo sapiens, 24 hours, BrightGlo luminescence. How it is done:
MCF7 TEAD-LUC reporter cells were obtained from BPS Bioscience, Inc. and cultured in DMEM medium (Corning, 10-013-CV) supplemented with 10% fetal bovine serum (Gibco, 10438-026), 1% penicillin-streptomycin (Gibco, 15070063), 1% non-essential amino acids (Gibco, 15070063), and 10 μg/mL insulin (Sigma, 10516). Cells were trypsinized, resuspended in growth medium, and diluted to a concentrated of 100,000 cells/mL. 5,000 cells, 50 μL of cell suspension, per well were then plated in a white 384-well plate (Corning) and incubated at 37° C., 5% CO2. After 24 hours incubation, 100 nL of test compounds in DMSO, 20-point 1:2 dilution starting from 20 μM (final concentration) in triplicate, were transferred to each well using an Agilent Bravo instrument outfitted with a pintool head. Cells were incubated at 37° C., 5% CO2 for 24 hours followed by the addition of 30 μL of BrightGlo (Promega; diluted 1:3 in water) to each well and luminescence values recorded using an EnVision plate reader.
The in vitro assay results of the compounds in the present invention were included in Table 1. The compounds described herein, inhibited the transcriptional activity of TEADs, as assessed by decreased luminance from a TEAD reporter cell line (MCF7 TEAD-LUC) in response to compound treatment.
(Reporter assays use an easily measured gene product as a stand-in for the process of interest.)

Among the data in patent US20250206722A1, “SMALL MOLECULE INHIBITORS OF TEA DOMAIN FAMILY MEMBERS” (The Scripps Research Institute, priority 2022, published 2025) are IC50 values, retold here.

For orientation: IC50 means the concentration that gives 50% inhibition.

Each structure is given as a SMILES string.

`C=C(F)C(=O)N1CCC(c2ncc(C)nc2Oc2ccc(C(F)(F)F)nc2)CC1` [Example 117, 2-fluoro-1-(4-(5-methyl-3-((6-(trifluoromethyl)pyridin-3-yl)oxy)pyrazin-2-yl)piperidin-1-yl)prop-2-en-1-one] gave an IC50 in the assay on NCI-H226 cells of 0.158 µM.

As for `C=CC(=O)N1CCC(c2cccnc2Nc2ccc(C(F)(F)F)nc2)CC1` [Example 149, 1-(4-(2-((6-(trifluoromethyl)pyridin-3-yl)amino)pyridin-3-yl)piperidin-1-yl)prop-2-en-1-one], the IC50 in the assay with NCI-H226 cells worked out at 2.71 µM; in assay [1], 164 nM.

Turning to `C=CC(=O)N1CCN(c2ncccc2C(=O)c2ccc(C(F)(F)F)nc2)CC1` [Example 141, 1-(4-(3-(6-(trifluoromethyl)nicotinoyl)pyridin-2-yl)piperazin-1-yl)prop-2-en-1-one], the IC50 in the assay with NCI-H226 cells stood at 0.5 µM; in assay [1], 7.5 nM.

Take `C=C(C)C(=O)N1CCN(c2nccnc2Nc2ccc(C(F)(F)F)nc2)CC1` [Example 177, 2-methyl-1-(4-(3-((6-(trifluoromethyl)pyridin-3-yl)amino)pyrazin-2-yl)piperazin-1-yl)prop-2-en-1-one]: the figures for the IC50 (in the assay on NCI-H226 cells; in assay [1]) were > 20 µM and > 20000 nM, respectively.

For the compound `C=C(F)C(=O)N1CC=C(c2ncccc2Oc2ccc(C(F)(F)F)nc2)CC1` [Example 137, 2-fluoro-1-(3-((6-(trifluoromethyl)pyridin-3-yl)oxy)-3′,6′-dihydro-[2,4′-bipyridin]-1′(2′H)-yl)prop-2-en-1-one], the IC50 in the assay on NCI-H226 cells is 0.243 µM; in assay [1], 22 nM.

Consider `C=CC(=O)N1CCN(c2nccnc2Nc2ccc(C(F)(F)F)cc2)C[C@@H]1C(N)=O` [Example 18, (R)-1-acryloyl-4-(3-((4-(trifluoromethyl)phenyl)amino)pyrazin-2-yl)piperazine-2-carboxamide], for which the 50% inhibitory concentration (IC50) came to 0.701 µM in the assay with NCI-H226 cells and 134 nM in assay [1].

In the case of `C=CC(=O)N1CCN(c2nccnc2Nc2ccc(C(F)F)nc2)CC1` [Example 47, 1-(4-(3-((6-(difluoromethyl)pyridin-3-yl)amino)pyrazin-2-yl)piperazin-1-yl)prop-2-en-1-one], the results for the IC50 (in the assay with NCI-H226 cells; in assay [1]) were 0.043 µM and 4 nM, respectively.

Consider `C=C(CN1CCC(c2nccnc2Oc2ccc(C(F)(F)F)nc2)CC1)C(=O)O` [Example 82, 2-((4-(3-((6-(trifluoromethyl)pyridin-3-yl)oxy)pyrazin-2-yl)piperidin-1-yl)methyl)acrylic acid], for which the IC50 in the assay with NCI-H226 cells is > 20 µM; in assay [1], > 20000 nM.

As to `C=CC(=O)N1CCN(c2cnncc2Nc2ccc(C(F)(F)F)cc2)CC1` [Example 122, 1-(4-(5-((4-(trifluoromethyl)phenyl)amino)pyridazin-4-yl)piperazin-1-yl)prop-2-en-1-one], the results for the IC50 (in the assay with NCI-H226 cells; in assay [1]) were > 10 µM and 6.8 nM, respectively.

With `C=C(F)C(=O)N1CCC(c2cccnc2Nc2ccc(OC(F)(F)F)nc2)CC1` [Example 152, 2-fluoro-1-(4-(2-((6-(trifluoromethoxy)pyridin-3-yl)amino)pyridin-3-yl)piperidin-1-yl)prop-2-en-1-one], the IC50 with NCI-H226 cells came to 22.2 µM; in assay [1] it was 13500 nM.

Take `C=CC(=O)N1CCN(c2nccnc2C(=O)NC2CC(F)(F)C2)CC1` [Example 100, 3-(4-acryloylpiperazin-1-yl)-N-(3,3-difluorocyclobutyl)pyrazine-2-carboxamide]: the IC50 with NCI-H226 cells was 1.18 µM; in assay [1], 74 nM.

With `C=CC(=O)N1CCN(c2nccnc2N(C)c2ccc(C(F)(F)F)cn2)CC1` [Example 42, 1-(4-(3-(methyl(5-(trifluoromethyl)pyridin-2-yl)amino)pyrazin-2-yl)piperazin-1-yl)prop-2-en-1-one], the values for the IC50 (with NCI-H226 cells; in assay [1]) were 0.166 µM and 17 nM, respectively.

As for `N#C/C=C\C(=O)N1CCN(c2nccnc2Nc2ccc(C(F)(F)F)cc2)CC1` [Example 182, (Z)-4-oxo-4-(4-(3-((4-(trifluoromethyl)phenyl)amino)pyrazin-2-yl)piperazin-1-yl)but-2-enenitrile], the values for the half-maximal inhibitory concentration (IC50) (in the assay with NCI-H226 cells; in assay [1]) were 0.034 µM and 1.2 nM, respectively.

On to `C=C(F)C(=O)N1CCN(c2nc(C)c(C)nc2Nc2ccc(C(F)(F)F)nc2)CC1` [Example 114, 1-(4-(5,6-dimethyl-3-((6-(trifluoromethyl)pyridin-3-yl)amino)pyrazin-2-yl)piperazin-1-yl)-2-fluoroprop-2-en-1-one], for which the IC50 with NCI-H226 cells came to 0.072 µM; in assay [1] it was 4.4 nM.

`C=CC(=O)N1CCN(c2nccnc2Nc2ccc(C(F)(F)F)cc2)C[C@H]1C(N)=O` [Example 19, (S)-1-acryloyl-4-(3-((4-(trifluoromethyl)phenyl)amino)pyrazin-2-yl)piperazine-2-carboxamide]: the figures for the half-inhibitory concentration (IC50) (in the assay on NCI-H226 cells; in assay [1]) were > 20 µM and > 20000 nM, respectively.

Take `C=CC(=O)N1CCN(c2nccnc2C(=O)N2CCC(C(F)(F)F)CC2)CC1` [Example 103, 1-(4-(3-(4-(trifluoromethyl)piperidine-1-carbonyl)pyrazin-2-yl)piperazin-1-yl)prop-2-en-1-one]: the IC50 was > 20 µM with NCI-H226 cells and 166 nM in assay [1].

Regarding `C=CC(=O)N1CCC(c2ncc(C)nc2Oc2ccc(C(F)(F)F)nc2)CC1` [Example 116, 1-(4-(5-methyl-3-((6-(trifluoromethyl)pyridin-3-yl)oxy)pyrazin-2-yl)piperidin-1-yl)prop-2-en-1-one], the IC50 in the assay on NCI-H226 cells worked out at 0.022 µM.

For `C=CC(=O)N1CCN(c2nc(OC)ncc2Nc2ccc(C(F)(F)F)cc2)CC1` [Example 133, 1-(4-(2-methoxy-5-((4-(trifluoromethyl)phenyl)amino)pyrimidin-4-yl)piperazin-1-yl)prop-2-en-1-one], the values for the IC50 (with NCI-H226 cells; in assay [1]) were 0.722 µM and 16.5 nM, respectively.

Take `C=CC(=O)N1CC(Nc2nccnc2N2CC(c3ccc(F)cc3)C2)C1` [Example 108, 1-(3-((3-(3-(4-fluorophenyl)azetidin-1-yl)pyrazin-2-yl)amino)azetidin-1-yl)prop-2-en-1-one]: the IC50 in the assay with NCI-H226 cells is > 10 µM.

For the compound `C=C(F)C(=O)N1CCN(c2cccnc2Nc2ccc(C(F)(F)F)nc2)CC1` [Example 144, 2-fluoro-1-(4-(2-((6-(trifluoromethyl)pyridin-3-yl)amino)pyridin-3-yl)piperazin-1-yl)prop-2-en-1-one], the IC50 with NCI-H226 cells stood at 0.031 µM; in assay [1], 8.1 nM.

Take `C=CC(=O)N1CCN(c2nccnc2Oc2ccc(C(F)(F)F)nc2)CC1` [Example 77, 1-(4-(3-((6-(trifluoromethyl)pyridin-3-yl)oxy)pyrazin-2-yl)piperazin-1-yl)prop-2-en-1-one]: the IC50 with NCI-H226 cells is 0.008 µM; in assay [1] it was 1.8 nM.

In the case of `C=CC(=O)N1CCN(c2ccccc2Nc2ccc(C(F)(F)F)cc2)CC1` [Example 162, 1-(4-(2-((4-(trifluoromethyl)phenyl)amino)phenyl)piperazin-1-yl)prop-2-en-1-one], the IC50 in the assay on NCI-H226 cells was determined as 0.192 µM; in assay [1], 1.1 nM.

Take `C=CC(=O)N1CCN(c2nccnc2Nc2ccc(C(F)F)cn2)CC1` [Example 40, 1-(4-(3-((5-(difluoromethyl)pyridin-2-yl)amino)pyrazin-2-yl)piperazin-1-yl)prop-2-en-1-one]: the results for the IC50 (in the assay on NCI-H226 cells; in assay [1]) were > 20 µM and 4 nM, respectively.

As to `N#C/C=C\C(=O)N1CCN(c2nccnc2Nc2ccc(C(F)(F)F)nc2)CC1` [Example 184, (Z)-4-oxo-4-(4-(3-((6-(trifluoromethyl)pyridin-3-yl)amino)pyrazin-2-yl)piperazin-1-yl)but-2-enenitrile], the IC50 was found to be 1.45 µM in the assay on NCI-H226 cells and 164 nM in assay [1].

In the case of `C=CC(=O)N1CCC(c2nccn(-c3ncc(C(F)(F)F)cn3)c2=O)CC1` [Example 118, 3-(1-acryloylpiperidin-4-yl)-1-(5-(trifluoromethyl)pyrimidin-2-yl)pyrazin-2(1H)-one], the IC50 in the assay on NCI-H226 cells is > 10 µM.

`C=C(F)C(=O)N1CCC(c2cncnc2Oc2ccc(C(F)(F)F)nc2)CC1` [Example 127, 2-fluoro-1-(4-(4-((6-(trifluoromethyl)pyridin-3-yl)oxy)pyrimidin-5-yl)piperidin-1-yl)prop-2-en-1-one]: the IC50 in the assay on NCI-H226 cells worked out at 66.8 µM.

Turning to `C=C(F)C(=O)N1CC(Nc2nccnc2N2CC(c3ccc(F)cc3)C2)C1` [Example 109, 2-fluoro-1-(3-((3-(3-(4-fluorophenyl)azetidin-1-yl)pyrazin-2-yl)amino)azetidin-1-yl)prop-2-en-1-one], the IC50 with NCI-H226 cells was > 10 µM.
